Experimental data from ChEMBL document CHEMBL1128082, “Inhibition of an HIV-1 Tat-derived peptide binding to TAR RNA by aminoglycoside antibiotics” (Bioorg Med Chem Lett, 1995).

Biological target: Nucleic Acid
Test: Concentration required for the inhibition of HIV- 1 Tat-derived peptide binding to TAR RNA.
Type: nucleic-acid assay

Row | Compound | IC50 [µM]
1 | CN[C@@H]1[C@H](O[C@H]2[C@H](O[C@H]3[C@H](O)[C@@H](O)[C@H](N=C(N)N)[C@@H](O)[C@@H]3N=C(N)N)O[C@@H](C)[C@]2(O)C=O)O[C@@H](CO)[C@H](O)[C@H]1O [STREPTOMYCIN] | 9.5
2 | NC[C@@H]1O[C@H](O[C@H]2[C@@H](O)[C@H](O[C@@H]3[C@@H](O)[C@H](N)C[C@H](N)[C@H]3O[C@H]3O[C@H](CN)[C@@H](O)[C@H](O)[C@H]3N)O[C@@H]2CO)[C@H](N)[C@@H](O)[C@@H]1O [FRAMYCETIN] | 0.92
3 | GENTAMICIN | 45
